Results taken from patent US7727553B2, “Oral preparations with favorable disintegration characteristics” (Dainippon Sumitomo Pharma Co., Ltd., priority 2000, dated 2010).

Test: physchem
Details: for solubility at 30 min: 22.5 °C, thermodynamic from solid
Description: According to the method disclosed in the Pharmacopoeia of Japan, the solubility (μg/ml) of Compound 1 was measured when treated for 30 minutes under the following conditions. • (1) Conditions for measurement of solubility:
Solvent: Diluted McIlvaine buffer

Cl.O=C1[C@@H]2[C@H]3CC[C@H](C3)[C@@H]2C(=O)N1C[C@@H]1CCCC[C@H]1CN1CCN(c2nsc3ccccc23)CC1 [Compound 1, N-[4-[4-(1,2-benzisothiazol-3-yl)-1-piperazinyl]-(2R, 3R)-2,3-tetramethylenebutyl]-(1′R, 2′S, 3′R, 4′S)-2,3-bicyclo[2.2.1]heptanedicarboximide hydrochloride]
solubility of Compound 1 (in words): quite low | solubility at 30 min (pH 3, aqueous buffer): > 20 µg/mL | solubility at 30 min (pH 4, aqueous buffer): 8.2 µg/mL | solubility at 30 min (pH 5, aqueous buffer): 0.7 µg/mL
